#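 At the GI50, growth is halved. TGI denotes the concentration required for complete inhibition of growth.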
# How the values were obtained:
# Assay in all cases: NCI tumour cell line growth inhibition, 384-well format
# A498 renal = system: A498 renal
# U251 glioblastoma = system: U251 glioblastoma
# NCI-H322M lung = system: NCI-H322M lung
# BT-549 breast = system: BT-549 breast
# NCI-H522 lung = system: NCI-H522 lung
# T-47D breast = system: T-47D breast
# IGROV1 ovarian = system: IGROV1 ovarian
# HT29 colon = system: HT29 colon
# LOX IMVI melanoma = system: LOX IMVI melanoma
# SN12C renal = system: SN12C renal
# SR leukemia = system: SR leukemia
# SNB-19 CNS = system: SNB-19 CNS
# MOLT-4 leukemia = system: MOLT-4 leukemia
compound,measurement,setting,value
Cc1cc([C@H](C)Nc2nccc(N3C(=O)OC[C@@H]3[C@H](C)F)n2)ncc1-c1ccnc(C(F)(F)F)c1,GI50,A498 renal,30.4 µM
same,TGI,A498 renal,> 100 µM
same,GI50,U251 glioblastoma,36.4 µM
same,TGI,U251 glioblastoma,> 100 µM
same,GI50,NCI-H322M lung,41.5 µM
same,TGI,NCI-H322M lung,> 100 µM
same,GI50,BT-549 breast,28 µM
same,TGI,BT-549 breast,> 100 µM
same,GI50,NCI-H522 lung,13.5 µM
same,TGI,NCI-H522 lung,58.7 µM
same,GI50,T-47D breast,5.13 µM
same,TGI,T-47D breast,> 100 µM
same,GI50,IGROV1 ovarian,28.3 µM
same,TGI,IGROV1 ovarian,> 100 µM
same,GI50,HT29 colon,31.7 µM
same,TGI,HT29 colon,> 100 µM
same,GI50,LOX IMVI melanoma,53.1 µM
same,TGI,LOX IMVI melanoma,> 100 µM
same,GI50,SN12C renal,45.5 µM
same,TGI,SN12C renal,> 100 µM
same,GI50,SR leukemia,11.1 µM
same,TGI,SR leukemia,25.4 µM
same,GI50,SNB-19 CNS,42.7 µM
same,TGI,SNB-19 CNS,> 100 µM
same,GI50,MOLT-4 leukemia,12.5 µM
same,TGI,MOLT-4 leukemia,25.3 µM

# — PubChem BioAssay (NCI)
